± gives the expanded uncertainty stated by the source.
Conditions: Liquid; for Critical pressure: Direct measurement; for Critical temperature: Visual observation in an unstirred cell

COC(C)(C)C [2-methoxy-2-methylpropane]
Critical pressure: 3448 ± 30 kPa
Critical temperature: 497 ± 2.4 K

C1CCCCC1 [cyclohexane]
Critical pressure: 4110 ± 30 kPa
Critical temperature: 554.1 ± 2.4 K

CCO [ethanol]
Critical pressure: 6135 ± 30 kPa
Critical temperature: 514.2 ± 2.4 K

CCCCCCC [heptane]
Critical pressure: 2761 ± 30 kPa
Critical temperature: 540 ± 2.4 K

CCCCCC [hexane]
Critical pressure: 3030 ± 30 kPa
Critical temperature: 507.9 ± 2.4 K

CO [methanol]
Critical pressure: 8128 ± 30 kPa
Critical temperature: 512.3 ± 2.4 K

CCCO [propan-1-ol]
Critical pressure: 5172 ± 30 kPa
Critical temperature: 537 ± 2.4 K
